Consider 4 compounds from patent US12121500B2, “Inhibitors of Bunyaviridae and uses thereof” (priority 2020, dated 2024).

Data set [1] deals with RVFV. Description: microbe, parasite or virus in culture. In kind it is cell-based, Rift Valley Fever Virus. The conditions noted are these: read-out: RVFV (EC50).
Data set [2] relates to Vero cells. Put plainly: Quantitative cytotoxicity in Vero cells, crystal violet staining of EC50 plates. To be noted: read-out: CC50 Vero, 1 day of compound exposure, crystal violet, * marks limit values.
In data set [3] the test system is RVFV strain MP12. Put plainly: microbe, parasite or virus in culture. The conditions noted are these: read-out: Estimated EC50. In kind it is cell-based, Rift Valley Fever Virus.
Data set [4] has as its system C. neoformans. Description: Inhibition of C. neoformans growth, limiting dilution assay. It is filed as cell-based, Cryptococcus neoformans. To be noted: 48 hours at 35° C., YNB-02.
Data set [5] relates to HepDES19. Put plainly: Cytotoxicity in HepDES19 cells, MTS assay. The conditions noted are these: read-out: CC50 HepDES19; HepDES19 cells, 3 days, MTS; * marks limit value. On the technique in general: Tetrazolium assays rely on reduction of a dye to a coloured formazan, in cell work by metabolically active cells.
Data set [6] concerns the target T1, human ribonuclease H1 (Homo sapiens, UniProt O60930).
T1 construct: made in house; host or cells: E. coli
T1 sequence (O60930 1-286): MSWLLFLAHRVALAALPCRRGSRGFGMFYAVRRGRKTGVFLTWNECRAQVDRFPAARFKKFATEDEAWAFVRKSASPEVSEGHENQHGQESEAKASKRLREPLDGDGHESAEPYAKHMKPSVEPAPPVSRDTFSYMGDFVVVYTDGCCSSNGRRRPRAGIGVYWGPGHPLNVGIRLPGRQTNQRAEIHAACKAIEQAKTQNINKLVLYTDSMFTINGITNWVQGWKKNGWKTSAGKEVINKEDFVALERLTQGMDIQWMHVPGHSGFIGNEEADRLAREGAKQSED
Put plainly: biochemical. In kind it is biochemical. The conditions noted are these: read-out: Human RNaseH1 (IC50).

The test system of data set [7] is Vero cells.
Data set [8] has as its system A549 cells.
The test system of data set [9] is RVFV. Put plainly: microbe, parasite or virus in culture. In kind it is cell-based, Rift Valley Fever Virus. To be noted: read-out: EC50.
For data set [10], the system named is Staphylococcus spp. Description: Inhibition of Staphylococcus spp. growth, broth microdilution. In kind it is cell-based, S. saprophyticus or S. aureus. To be noted: 16-24 hours, Mueller-Hinton broth; — = no measurable MIC80.
Data set [11] has as its system Escherichia coli. Description: Inhibition of Escherichia coli growth, broth microdilution. In kind it is cell-based. The conditions noted are these: 16-24 hours, Mueller-Hinton broth; — = inactive. On the technique in general: Broth dilution looks for growth in wells or tubes with falling amounts of substance.

Read-outs that look alike come from different tables or passages of the source.

For the compound `Cc1ccc(/C=C/C(=O)c2ccccc(=O)c2O)cc1` [Compound 340], the results for the EC50 in data set [1] and in data set [3] were 27.3 µM and 3 µM, respectively. In addition, the CC50 (as a rule, the concentration that lowers cell viability or growth by half) is 70 µM in [2] and 18.7 µM in data set [5]. Besides, in data set [4], the “C. neoformans (MIC80, μM)” value is 49 µM. Moreover, the 50% inhibitory concentration (IC50) (commonly the point on the concentration scale where inhibition reaches its midpoint) in data set [6] is > 500 µM.

`CCc1cccc(N=C(C)c2c(C)cc(=O)n(O)c2O)c1` [Compound 518]: the EC50 – broadly, the concentration giving half of the maximal effect – in data set [1] is 20 µM; in [9] it was 17.2 µM; in data set [3], 7 µM. The cytotoxic concentration (CC50) in data set [7] is ≥ 120 µM; in [2], > 120 µM; in [8] it was 16.5 µM; in data set [5] it was 91.4 µM. Moreover, in [4], the “C. neoformans (MIC80, μM)” value came to 24 µM. In addition, the IC50 in [6] turned out to be 436 µM. In addition, the “Staphylococcus spp. (MIC80, μM)” value in [10] was 67 µM.

Turning to `O=C(Cc1ccccc1)Sc1cccccc1=O` [Compound 680], the EC50 was > 120 µM in [1], 11.6 µM in data set [9] and 0.3 µM in [3]. For the same compound, the cytotoxic concentration (CC50) in data set [7] was 0.9 µM; in data set [2], > 120 µM; in data set [8] it was ≥ 120 µM; in [5], 95.6 µM. Also, the “C. neoformans (MIC80, μM)” value in [4] stood at 0.40 µM. For the same compound, the “E. coli (MIC80, μM)” value in data set [11] amounted to 30 µM. Besides, in [6], the half-maximal inhibitory concentration (IC50) was found to be 652 µM. In addition, the “Staphylococcus spp. (MIC80, μM)” value in [10] came to 13 µM.

On to `CC[C@H](C)[C@H](NC(=O)OCC1c2ccccc2-c2ccccc21)C(=O)Sc1cccccc1=O` [Compound 686], for which the concentration giving a half-maximal response (EC50) in [1] is > 120 µM; in data set [9] it was 7.87 µM; in data set [3], 2 µM. For the same compound, the CC50 in data set [7] is ≥ 120 µM; in data set [2] it was > 120 µM; in [8], 67.6 µM; in [5], 42.6 µM. For the same compound, in [4], the “C. neoformans (MIC80, μM)” value turned out to be 0.85 µM. Moreover, in data set [6], the IC50 was > 500 µM. In addition, the “Staphylococcus spp. (MIC80, μM)” value in [10] is 30 µM.
